{"source": "patent US20250281462A1", "about": "“THERAPEUTICALLY EFFECTIVE ORAL ADMINISTRATION OF A 2 ARYLBENZIMIDAZOLE” (Tranquis Therapeutics, Inc., priority 2021, published 2025)", "key": {"[1]": {"test": "Plasma concentrations of TQS-168 and TQS-621 after single oral dose 50 mg/kg in mice, three formulations", "type": "in vivo", "settings": "for concentration at 12 h: male, C57BL/6, mouse, plasma, po, read-out: Calculated Concentration in plasma; for concentration at 12 h / Calculated Concentration in plasma: mice", "protocol": "In a second experiment, mice were administered 50 mg/kg TQS-168 by oral gavage. For Group 1, TQS-168 was prepared at a concentration of 5.0 mg/mL in a suspension with […] in PBS. For Group 2, TQS-168 was prepared at a concentration of 5.0 mg/mL as a solution in 10 polyethylene glycol (PEG) 400|30 Kleptose (Roquete)|60% water.\nPlasma exposures for Group 1 mice (ng/mL) are presented in Table 2 and for Group 2 mice in Table 3.\nC57BL/6 male mice were administered a single dose of TQS-168 at 50 mg/kg using one of three formulations: Group 1-5.0 mg/ml suspension in 0.5% methylcellulose in PBS; Group 2-5.0 mg/ml solution in PEG400 (Fluka) 10%|Kleptose (Roquette) 30%|sterile water 60%; Group 3-5.0 mg/ml suspension in Labrafil M 1944 CS (Gattefosse) 30%|Masine CC (Gattefosse) 5%|Miglyol 812N 10%|sterile water 55%.\nPlasma concentrations of TQS-168 and TQS-621 were measured overtime."}, "[2]": {"test": "Plasma and brain concentrations after single oral dose 45 mg/kg in mice", "type": "in vivo", "settings": "for Kp: brain, 45 mg/kg, mice, 45 mg/kg p.o.", "protocol": "Mice were administered a single oral dose of 45 mg/kg TQS-168. TQS-168 was prepared at a concentration of 5.0 mg/mL as a solution in 10% polyethylene glycol (PEG) 400|130% Kleptose (Roquette) 60% water.\nConcentrations in plasma and in brain were measured at various timepoints and various pharmacokinetic parameters were calculated, as shown below in Tables 4 and 5 and in FIGS. 19A and 19B.\nTQS-168 was prepared as a 4.5 mg/ml solution in PEG400 10%| Kleptose 30% sterile water 60%. A single oral dose of 45 mg/kg was administered. Concentrations of TQS-621 were measured in plasma and brain over time."}, "[3]": {"tested_on": "murine models of neurodegenerative diseases", "settings": "mice, oral 25-50 mg/kg; Parkinson's disease, Alzheimer's disease, ALS models; cited from earlier work"}, "Ppargc1α (PGC-1α)": {"tested_on": "Ppargc1α (PGC-1α)", "settings": "Zhang et al., Diabetes 62:1297-1307 (2013); cited from earlier work"}, "[4]": {"settings": "mice plasma, TQS-168 50 mg/kg p.o., Group 1 (suspension, 0.5% methylcellulose in PBS), individual mouse, 50 mg/kg"}, "[5]": {"settings": "mice plasma, TQS-168 50 mg/kg p.o., Group 2 (solution, PEG400/Kleptose/water), individual mouse, 50 mg/kg"}, "[6]": {"settings": "mice plasma, TQS-168 50 mg/kg p.o., Group 3 (suspension, Labrafil/Masine/Miglyol/water), individual mouse, 50 mg/kg"}, "[7]": {"settings": "mice brain, TQS-168 45 mg/kg p.o., solution PEG 400/Kleptose/water"}, "[8]": {"settings": "mice plasma, TQS-168 45 mg/kg p.o., solution PEG 400/Kleptose/water"}, "[9]": {"settings": "mouse, po, mice brain, TQS-168 45 mg/kg p.o., solution PEG 400/Kleptose/water"}, "[10]": {"settings": "mouse, po, mice plasma, TQS-168 45 mg/kg p.o., solution PEG 400/Kleptose/water"}}, "note": "Values joined by “and” are separate entries in the source; they are usually repeats but may differ in a detail not shown here. Equal entries are not always repeated. Where two headings read alike, the source gives them in different places."}
{"compound": "CC(C)(C)c1ccc(-c2nc3ccccc3[nH]2)cc1", "note": "[TQS-168, 2-(4-tert-butylphenyl)-1H-benzimidazole]", "values": [{"measurement": "concentration at 12 h", "setting": "[1]; 50 mg/kg, 50 mg/kg p.o., Group 2 (solution, PEG 400/Kleptose/water), 12 hr, individual mouse", "result": 185, "unit": "ng/mL"}, {"measurement": "concentration at 12 h", "setting": "[1]; 50 mg/kg, 50 mg/kg p.o., Group 2 (solution, PEG 400/Kleptose/water), 12 hr, mean", "result": 161, "unit": "ng/mL"}, {"measurement": "Cmax", "setting": "[1]; mice plasma, 50 mg/kg p.o., Group 2 (solution), 50 mg/kg, read-out: Cmax", "result": 7.9, "unit": "µM"}, {"measurement": "AUCInf", "setting": "[1]; [4]", "result": "5085 ng·h/mL and 14196 ng·h/mL and 5052 ng·h/mL"}, {"measurement": "AUClast", "setting": "[1]; [4]", "result": "8046 ng·h/mL and 4822 ng·h/mL"}, {"measurement": "Cmax", "setting": "[1]; [4]", "result": "1380 ng/mL and 704 ng/mL"}, {"measurement": "t1/2", "setting": "[1]; [4]", "result": "1.74 h and 9.47 h and 1.70 h"}, {"measurement": "AUCInf", "setting": "[1]; [5]", "result": "11411 ng·h/mL and 11446 ng·h/mL"}, {"measurement": "AUClast", "setting": "[1]; [5]", "result": "11058 ng·h/mL and 10525 ng·h/mL"}, {"measurement": "Cmax", "setting": "[1]; [5]", "result": "2390 ng/mL and 2070 ng/mL"}, {"measurement": "t1/2", "setting": "[1]; [5]", "result": "2.22 h and 3.41 h"}, {"measurement": "AUCInf", "setting": "[1]; [6]", "result": "4336 ng·h/mL and 3877 ng·h/mL"}, {"measurement": "AUClast", "setting": "[1]; [6]", "result": "3924 ng·h/mL and 3753 ng·h/mL"}, {"measurement": "Cmax", "setting": "[1]; [6]", "result": "752 ng/mL and 420 ng/mL"}, {"measurement": "Tmax", "setting": "[1]; [6]", "result": 8, "unit": "h"}, {"measurement": "t1/2", "setting": "[1]; [6]", "result": "2.23 h and 1.43 h"}, {"measurement": "Cmax", "setting": "[1]; mice plasma, TQS-168 50 mg/kg p.o., Group 3 (suspension, Labrafil/Masine/Miglyol/water), mean, 50 mg/kg", "result": 594, "unit": "ng/mL"}, {"measurement": "Calculated Concentration in plasma", "setting": "[1]; 50 mg/kg p.o., Group 1 (suspension, methylcellulose in PBS), 0.25 hr, individual mouse, 50 mg/kg", "result": "887 ng/mL and 485 ng/mL"}, {"measurement": "Calculated Concentration in plasma", "setting": "[1]; 50 mg/kg p.o., Group 1 (suspension, methylcellulose in PBS), 0.5 hr, individual mouse, 50 mg/kg", "result": "848 ng/mL and 1380 ng/mL and 619 ng/mL"}, {"measurement": "Calculated Concentration in plasma", "setting": "[1]; 50 mg/kg p.o., Group 1 (suspension, methylcellulose in PBS), 1 hr, individual mouse, 50 mg/kg", "result": "1310 ng/mL and 704 ng/mL"}, {"measurement": "Calculated Concentration in plasma", "setting": "[1]; 50 mg/kg p.o., Group 1 (suspension, methylcellulose in PBS), 2 hr, individual mouse, 50 mg/kg", "result": "839 ng/mL and 1050 ng/mL and 440 ng/mL"}, {"measurement": "Calculated Concentration in plasma", "setting": "[1]; 50 mg/kg p.o., Group 1 (suspension, methylcellulose in PBS), 4 hr, individual mouse, 50 mg/kg", "result": "479 ng/mL and 391 ng/mL"}, {"measurement": "Calculated Concentration in plasma", "setting": "[1]; 50 mg/kg p.o., Group 1 (suspension, methylcellulose in PBS), 8 hr, individual mouse, 50 mg/kg", "result": "254 ng/mL and 603 ng/mL and 480 ng/mL"}, {"measurement": "Calculated Concentration in plasma", "setting": "[1]; 50 mg/kg p.o., Group 1 (suspension, methylcellulose in PBS), 12 hr, individual mouse, 50 mg/kg", "result": "18.0 ng/mL and 450 ng/mL and 93.9 ng/mL"}, {"measurement": "Calculated Concentration in plasma", "setting": "[1]; 50 mg/kg p.o., Group 1 (suspension, methylcellulose in PBS), 24 hr, individual mouse", "result": "BLOQ"}, {"measurement": "Calculated Concentration in plasma", "setting": "[1]; 50 mg/kg p.o., Group 2 (solution, PEG 400/Kleptose/water), 0.25 hr, individual mouse, 50 mg/kg", "result": "874 ng/mL and 1170 ng/mL"}, {"measurement": "Calculated Concentration in plasma", "setting": "[1]; 50 mg/kg p.o., Group 2 (solution, PEG 400/Kleptose/water), 0.5 hr, individual mouse, 50 mg/kg", "result": "2070 ng/mL and 1860 ng/mL"}, {"measurement": "Calculated Concentration in plasma", "setting": "[1]; 50 mg/kg p.o., Group 2 (solution, PEG 400/Kleptose/water), 1 hr, individual mouse, 50 mg/kg", "result": "2390 ng/mL and 2070 ng/mL"}, {"measurement": "Calculated Concentration in plasma", "setting": "[1]; 50 mg/kg p.o., Group 2 (solution, PEG 400/Kleptose/water), 2 hr, individual mouse, 50 mg/kg", "result": "1830 ng/mL and 1630 ng/mL"}, {"measurement": "Calculated Concentration in plasma", "setting": "[1]; 50 mg/kg p.o., Group 2 (solution, PEG 400/Kleptose/water), 4 hr, individual mouse, 50 mg/kg", "result": "1330 ng/mL and 949 ng/mL"}, {"measurement": "Calculated Concentration in plasma", "setting": "[1]; 50 mg/kg p.o., Group 2 (solution, PEG 400/Kleptose/water), 8 hr, individual mouse, 50 mg/kg", "result": "329 ng/mL and 579 ng/mL"}, {"measurement": "Calculated Concentration in plasma", "setting": "[1]; 50 mg/kg p.o., Group 2 (solution, PEG 400/Kleptose/water), 12 hr, individual mouse, 50 mg/kg", "result": "110 ng/mL and 187 ng/mL"}, {"measurement": "Calculated Concentration in plasma", "setting": "[1]; 50 mg/kg p.o., Group 2 (solution, PEG 400/Kleptose/water), 24 hr, individual mouse", "result": "BLOQ"}, {"measurement": "AUCExtr", "setting": "[2]; [7]", "result": 0.308, "unit": "%"}, {"measurement": "AUCInf", "setting": "[2]; [7]", "result": 24668, "unit": "ng·h/g"}, {"measurement": "AUCInf/D", "setting": "[2]; [7]", "result": 548, "unit": "kg·ng·h/g/mg"}, {"measurement": "AUClast", "setting": "[2]; mice brain, TQS-168 45 mg/kg p.o., solution PEG 400/Kleptose/water, last time point 24 hr", "result": 24592, "unit": "ng·h/g"}, {"measurement": "AUCExtr", "setting": "[2]; [8]", "result": 0.188, "unit": "%"}, {"measurement": "AUCInf/D", "setting": "[2]; [8]", "result": 302, "unit": "kg·ng·h/mL/mg"}, {"measurement": "Kp", "setting": "[2]; mouse, po, read-out: Brain-to-plasma AUC ratio", "result": 1.81}, {"measurement": "Kp", "setting": "[2]; mouse, po, read-out: Brain-to-plasma Cmax ratio", "result": 1.84}, {"measurement": "Cmax", "setting": "[2]; [9]", "result": 4260, "unit": "ng/g"}, {"measurement": "MRT inf", "setting": "[2]; [9]", "result": 3.45, "unit": "h"}, {"measurement": "Tmax", "setting": "[2]; [9]", "result": 1, "unit": "h"}, {"measurement": "half-life", "setting": "[2]; [9]", "result": 3.66, "unit": "h"}, {"measurement": "AUC(0-inf)", "setting": "[2]; [10]", "result": 13600, "unit": "ng·h/mL"}, {"measurement": "Cmax", "setting": "[2]; [10]", "result": 2310, "unit": "ng/mL"}, {"measurement": "MRT inf", "setting": "[2]; [10]", "result": 3.35, "unit": "h"}, {"measurement": "Tmax", "setting": "[2]; [10]", "result": 0.5, "unit": "h"}, {"measurement": "half-life", "setting": "[2]; [10]", "result": 3.26, "unit": "h"}, {"measurement": "AUC(0-t)", "setting": "[2]; mouse, po, mice plasma, TQS-168 45 mg/kg p.o., solution PEG 400/Kleptose/water, last time point 24 hr", "result": 13600, "unit": "ng·h/mL"}, {"measurement": "myeloid-mediated inflammation and disease severity", "setting": "[3]", "result": "suppress myeloid-mediated inflammation and reduce disease severity"}, {"measurement": "effect on Ppargc1α (PGC-1α) gene expression", "setting": "Ppargc1α (PGC-1α)", "result": "activator"}]}
